Data taken from PMC13261308, “Mapping Functionally Relevant Tractable Lysines of Challenging Protein Targets by Covalent Fragment Screening” (Chembiochem, 2026).

Assays:
[1] = HPLC-MS-based stability (blank, without N-α-acetyl-lysine) in BBS buffer pH 10.2; details: pH 10.2 buffer without N-α-acetyl-lysine
Protocol: (§1) 1.2.1 HPLC-MS-based N-α-acetyl-lysine reactivity assay3
(§2) HPLC-MS measurements were performed using a Shimadzu LCMS-2020 device equipped with a positive–negative double ion source (DUIS±) and a quadrupole MS analyzer in the range of m/z 50–1000. The sample was eluted with gradient elution using eluent A (0.1% HCOOH in H2O) and eluent B (0.1% HCOOH in MeCN). The column temperature was always kept at 30 °C; the injection volume was 10 µL, and the flow rate was set to 1.5 mL/min. A Reprospher C18 (5 μm, 100 mm × 3 mm) column was used along with the following gradient. The in itial condition was 0% B eluent, followed by a linear gradient to 100% B eluent by 2 min; from 2 to […]
(§3) was restored and retained until 5 min.
(§4) For the reactivity and stability assay, in a glass LC-MS vial the internal standard (indoprofen or papaverine or 1,4-dicyanobenzene, 50 µL, 2 mM in acetonitrile) and the 100 mM BBS buffer […]
(§5) of reactivity or stability, respectively). Finally, to this mixture the corresponding electrophile was added (50 µl, 20 mM in acetonitrile) right before the measurement. The vial was mixed, then analyzed by HPLC-MS (10 µL injection volume) at intervals of approximately 60 min (0-4 h, 6 […]
(§6) Final volume was 1 mL. In the case of highly reactive compounds, the measurement was done within 1 h, monitored every 5 minutes. The AUC (area under the […]
(§7) corrected with the internal standard. The fragments’ AUC values were subjected to ordinary least-squares (OLS) linear regression, and to compute the important parameters (kinetic rate constant and half-life time), an Excel sheet was applied. The data are expressed as means of duplicate determination. The kinetic rate constant for the degradation and corrected N-α-acetyl-lysine reactivity were calculated as follows. The reaction half-life for pseudo-first-order reactions (t1/2) is ln 2/k, where k is the reaction rate. In the case of competing reactions (reaction with N-α-acetyl-lysine and degradation), the apparent reaction rate is kLys = kBlank + kBinding.
(§8) When half-lives are measured experimentally, t1/2(Lys) = ln 2/(kLys) = ln 2/(kBlank + kBinding). In our case, the corrected kBlank and kLys (regarding blank and N-α-acetyl lysine-containing samples, respectively) can be calculated by linear regression of the measured kinetic data points. […]

[2] = HPLC-MS-based N-α-acetyl-lysine reactivity assay; details: pH 10.2, monitored for 24 h
Protocol: as §1, §2, §3, §4, §5, §6, §7, §8

SMILES	Stability t1/2, pH 10.2 [1]	Lys-reactivity t1/2, pH 10.2 [2]
O=S(=O)(F)Oc1cc(C(F)(F)F)cc(C(F)(F)F)c1 [compound 4]	4.94 h	–
O=S(=O)(On1nnc2ccccc21)c1cc(C(F)(F)F)cc(C(F)(F)F)c1 [compound 6]	0.35 h	–
Cc1ccc(S(=O)(=O)N(CC#N)C(=O)Cc2cc(C(F)(F)F)cc(C(F)(F)F)c2)cc1 [compound 8]	0.17 h	0.26 h
CC(=O)N(C(=O)c1cc(C(F)(F)F)cc(C(F)(F)F)c1)c1ccccc1 [compound 13]	–	0.27 h
FC(F)=Cc1cc(C(F)(F)F)cc(C(F)(F)F)c1 [compound 17]	3.32 h	–
COc1c(Nc2cc(C(F)(F)F)cc(C(F)(F)F)c2)c(=O)c1=O [compound 18]	12.17 h	–
FC(F)(F)c1cc(Nc2nc(Cl)nc(Cl)n2)cc(C(F)(F)F)c1 [compound 19]	0.97 h	–
O=Cc1c(O)cc(C(F)(F)F)cc1C(F)(F)F [compound 26]	246.76 h	40.93 h
O=Cc1cc2ccccc2cc1C=O [compound 31, 2,3‐naphthalene‐dicarboxaldehyde]	11.69 h	–
C#Cc1ccc(C(F)(F)F)cc1C=O [compound 32]	15.36 h	0.23 h
